Source: patent US6469000B1, “1,3-diheterocyclic metalloprotease inhibitors” (The Procter & Gamble Co., priority 1996, dated 2002)

How the values were obtained:
Assay type in all cases: in vivo
[1] = system: human subject suffering from rheumatoid arthritis; assay: Example A: tablets given orally to a subject with rheumatoid arthritis; conditions: tablet with 15 mg Example 9, three tablets per day orally for 2 years, 60 kg person
Description: A tablet composition for oral administration, according to the present invention, is made comprising:
A human subject weighing 60 kg (132 lbs), suffering from rheumatoid arthritis, is treated by a method of this invention. Specifically, for 2 years, a regimen of three tablets per day is administered orally to said subject.

[2] = system: human subject suffering from osteoarthritis; assay: Example B: capsule given daily to a subject with osteoarthritis; conditions: capsule containing 70 mg of Example 3 daily for 5 years, 90 kg person
Description: A capsule for oral administration, according to the present invention, is made comprising:
A human subject weighing 90 kg (198 lbs), suffering from osteoarthritis, is treated by a method of this invention. Specifically, for 5 years, a capsule containing 70 mg of Example 3 is administered daily to said subject.

[3] = system: patient suffering from chemical burns; assay: Example D: topical composition applied to chemical burns; conditions: 0.20% w/v Compound of Example 3, topical, at each dressing change (b.i.d.)
From the text: An topical composition for local administration, according to the present invention, is made comprising:
A patient suffering from chemical burns applies the composition at each dressing change (b.i.d.).

Compound	inflammation at the end of the treatment period [1]	mobility at the end of the treatment period [1]	erosion/fibrillation of the articular cartilage, examined via orthoscopy [2]	scarring after chemical burns [3]
COc1ccc(S(=O)(=O)N2CC(C)(C)C(=O)N(Cc3ccccc3)C2C(=O)NO)cc1 (stereo not shown) [Example 9, N-hydroxy-1-[(4-methoxyphenyl)sulfonyl]-3-phenylmethyl-4-oxo-5,5-dimethyl-hexahydro-pyrimidin-2-carboxamide]	reduced inflammation	improved mobility without concomitant pain		
COc1ccc(S(=O)(=O)N2CCCN(S(C)(=O)=O)C2C(=O)NO)cc1 (racemic) [Example 3, N-hydroxy 1-[(4-methoxyphenyl)sulfonyl]-3-[methylsulphonyl]-hexahydro-pyrimidine-2(R, S)-carboxamide]			no further advancement of erosion/fibrillation of the articular cartilage	substantially diminished
